In the supplement of paper PMC4862054:

Tests used:
Details in all cases: incubation time: 72 h
[1] = system: MDA-MB-436; test: normalised viability (% of control), CellTiter-Blue; higher = more viable cells (about 100 = DMSO control)
Description: (§1)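 DSRT, CellTiter-Blue viability, 72 h incubation. Signal is normalised to DMSO and benzethonium chloride controls. Value is the normalised response at dose 3.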

[2] = system: CAL-120; test: as above
Description: as §1

[3] = system: HCC1599; test: as above
Description: as §1

[4] = system: SK-BR-3; test: as above
Description: as §1

[5] = system: BT-474; test: as above
Description: as §1

[6] = system: HCC1143; test: as above
Description: as §1

[7] = system: MFM-223; test: as above
Description: as §1

[8] = system: CAL-85-1; test: as above
Description: as §1

[9] = system: HCC1937; test: as above
Description: as §1

[10] = system: MDA-MB-468; test: as above
Description: as §1

[11] = system: CAL-148; test: as above
Description: as §1

[12] = system: CAL-51; test: as above
Description: as §1

[13] = system: HDQ-P1; test: as above
Description: as §1

[14] = system: MDA-MB-453; test: as above
Description: as §1

[15] = system: BT-549; test: as above
Description: as §1

[16] = system: MDA-MB-231; test: as above
Description: as §1

[17] = system: DU-4475; test: as above
Description: as §1

[18] = system: Hs578T; test: as above
Description: as §1

[19] = system: CAL-120; test: drug sensitivity score (DSS), CellTox Green (DSS (AUC-based score)); higher = stronger drug effect (viability inhibition or cytotoxicity); extreme values may be limits of the assay
Procedure, shortened: (§2)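 The drug sensitivity score was computed from the area under the fitted dose-response curve. Breast cancer cell lines in 20 µl suspension went into 384-well plates holding compound at 5 concentrations (10-fold steps over a 10,000-fold, compound-specific range) for 72 h of incubation. CellTox Green fluorescence (485/520 nm) was read before CellTiter-Glo luminescence, the latter after 10 min at room temperature, and each plate was normalised to 0.1 % DMSO and a positive kill control.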

[20] = system: HCC1937; test: as above
Procedure, shortened: as §2

[21] = system: MDA-MB-468; test: as above
Procedure, shortened: as §2

[22] = system: CAL-51; test: as above
Procedure, shortened: as §2

[23] = system: BT-549; test: as above
Procedure, shortened: as §2

[24] = system: DU-4475; test: as above
Procedure, shortened: as §2

| Structure (SMILES) | normalised viability ([1]; 100 nM) | normalised viability ([2]; 100 nM) | normalised viability ([3]; 100 nM) | normalised viability ([4]; 100 nM) | normalised viability ([5]; 100 nM) | normalised viability ([6]; 100 nM) | normalised viability ([7]; 100 nM) | normalised viability ([8]; 10 nM) | normalised viability ([9]; 100 nM) | normalised viability ([10]; 100 nM) | normalised viability ([11]; 10 nM) | normalised viability ([12]; 10 nM) | normalised viability ([13]; 10 nM) | normalised viability ([14]; 10 nM) | normalised viability ([15]; 100 nM) | normalised viability ([16]; 100 nM) | normalised viability ([17]; 10 nM) | normalised viability ([18]; 100 nM) | drug sensitivity score [19] | drug sensitivity score [22] | also measured |
| --- | --- | --- | --- | --- | --- | --- | --- | --- | --- | --- | --- | --- | --- | --- | --- | --- | --- | --- | --- | --- | --- |
| COc1cc([C@@H]2c3cc4c(cc3[C@@H](O[C@@H]3O[C@@H]5CO[C@@H](C)O[C@H]5[C@H](O)[C@H]3O)[C@H]3COC(=O)[C@H]23)OCO4)cc(OC)c1O [Etoposide] | 97.6% | 90.8% | 115% | 58.5% | 108% | 84% | 98.7% | 101% | 91.3% | 94.2% | 93.8% | 91.1% | 94.2% | 108% | 77.5% | 96.6% | 115% | 84.3% | 1.57 | 9.25 | drug sensitivity score [20]: 0; drug sensitivity score [21]: 7.2; drug sensitivity score [23]: 0; drug sensitivity score [24]: 0.895 |
| CC(=O)Nc1ccc(C(=O)Nc2ccccc2N)cc1 [CI-994] |  |  |  |  |  |  |  |  |  |  |  |  |  |  |  |  |  |  |  |  | normalised viability ([1]; 10 nM): 94.2%; normalised viability ([2]; 10 nM): 114%; normalised viability ([3]; 10 nM): 108%; normalised viability ([4]; 10 nM): 78.2%; normalised viability ([5]; 10 nM): 106%; normalised viability ([6]; 10 nM): 111%; normalised viability ([7]; 10 nM): 97.5%; normalised viability ([8]; 1 nM): 91.7%; normalised viability ([9]; 10 nM): 108%; normalised viability ([10]; 10 nM): 108%; normalised viability ([11]; 1 nM): 98.1%; normalised viability ([12]; 1 nM): 94%; normalised viability ([13]; 1 nM): 113%; normalised viability ([14]; 1 nM): 113%; normalised viability ([15]; 10 nM): 96.9%; normalised viability ([16]; 10 nM): 103%; normalised viability ([17]; 1 nM): 93.9%; normalised viability ([18]; 10 nM): 97.8% |
| NC(=O)Nc1cc(-c2cccc(F)c2)sc1C(=O)N[C@H]1CCCNC1 [AZD 7762] |  |  |  |  |  |  |  |  |  |  |  |  |  |  |  |  |  |  |  |  | normalised viability ([1]; 10 nM): 96.1%; normalised viability ([2]; 10 nM): 114%; normalised viability ([3]; 10 nM): 101%; normalised viability ([4]; 10 nM): 97.6%; normalised viability ([5]; 10 nM): 124%; normalised viability ([6]; 10 nM): 105%; normalised viability ([7]; 10 nM): 96.2%; normalised viability ([8]; 1 nM): 99.8%; normalised viability ([9]; 10 nM): 105%; normalised viability ([10]; 10 nM): 107%; normalised viability ([11]; 1 nM): 105%; normalised viability ([12]; 1 nM): 100%; normalised viability ([13]; 1 nM): 115%; normalised viability ([14]; 1 nM): 104%; normalised viability ([15]; 10 nM): 120%; normalised viability ([16]; 10 nM): 114%; normalised viability ([17]; 1 nM): 113%; normalised viability ([18]; 10 nM): 104% |
| Cc1ccc(C(=O)Nc2ccc(CN3CCN(C)CC3)c(C(F)(F)F)c2)cc1C#Cc1cnc2cccnn12 [Ponatinib] |  |  |  |  |  |  |  |  |  |  |  |  |  |  |  |  |  |  |  |  | normalised viability ([1]; 10 nM): 101%; normalised viability ([2]; 10 nM): 105%; normalised viability ([3]; 10 nM): 114%; normalised viability ([4]; 10 nM): 78%; normalised viability ([5]; 10 nM): 103%; normalised viability ([6]; 10 nM): 100%; normalised viability ([7]; 10 nM): 65.5%; normalised viability ([8]; 1 nM): 95.9%; normalised viability ([9]; 10 nM): 91.6%; normalised viability ([10]; 10 nM): 110%; normalised viability ([11]; 1 nM): 103%; normalised viability ([12]; 1 nM): 96.6%; normalised viability ([13]; 1 nM): 117%; normalised viability ([14]; 1 nM): 110%; normalised viability ([15]; 10 nM): 107%; normalised viability ([16]; 10 nM): 101%; normalised viability ([17]; 1 nM): 105%; normalised viability ([18]; 10 nM): 99.6% |
| C[C@]12CC[C@@H]3c4ccc(O)cc4C[C@@H](CCCCCCCCC[S+]([O-])CCCC(F)(F)C(F)(F)F)[C@H]3[C@@H]1CC[C@@H]2O (stereo partly drawn) [Fulvestrant] | 103% | 78.5% | 113% | 94.3% | 89.2% | 77.8% | 70.4% | 95.8% | 91.9% | 87.2% | 86.5% | 112% | 93.3% | 81.3% | 94.8% | 79.9% | 105% | 85.5% | 0 | 0 | drug sensitivity score [20]: 0; drug sensitivity score [23]: 0; drug sensitivity score [24]: 0 |
| NCC(=O)CCC(=O)O [Aminolevulinic acid] | 104% | 99.7% | 87.9% | 99% | 114% | 88.9% | 91.7% | 98.4% | 91% | 103% | 104% | 101% | 100% | 99.1% | 104% | 110% | 104% | 101% |  |  |  |
| O=P1(NCCCl)OCCCN1CCCl (stereo not drawn) [Ifosfamide] | 95.3% | 91.2% | 108% | 70.5% | 120% | 83.4% | 81.2% | 95.5% | 107% | 98.7% | 92.2% | 107% | 125% | 99.8% | 115% | 108% | 110% | 94.9% | 0 | 0 | drug sensitivity score [21]: 0; drug sensitivity score [23]: 0.736; drug sensitivity score [24]: 0 |
| CCN(CCCOc1ccc2c(Nc3cc(CC(=O)Nc4cccc(F)c4)[nH]n3)ncnc2c1)CCOP(=O)(O)O [Barasertib] |  |  |  |  |  |  |  |  |  |  |  |  |  |  |  |  |  |  |  |  | normalised viability ([1]; 10 nM): 113%; normalised viability ([2]; 10 nM): 88.1%; normalised viability ([3]; 10 nM): 101%; normalised viability ([4]; 10 nM): 68.3%; normalised viability ([5]; 10 nM): 90.2%; normalised viability ([6]; 10 nM): 111%; normalised viability ([7]; 10 nM): 93.4%; normalised viability ([8]; 1 nM): 95.5%; normalised viability ([9]; 10 nM): 101%; normalised viability ([10]; 10 nM): 99.4%; normalised viability ([11]; 1 nM): 102%; normalised viability ([12]; 1 nM): 96%; normalised viability ([13]; 1 nM): 111%; normalised viability ([14]; 1 nM): 108%; normalised viability ([15]; 10 nM): 96.8%; normalised viability ([16]; 10 nM): 102%; normalised viability ([17]; 1 nM): 102%; normalised viability ([18]; 10 nM): 87.9% |
| N.N.[Cl][Pt][Cl] [Cisplatin] | 89.8% | 86.5% | 95.4% | 90.5% | 127% | 103% | 93.7% | 104% | 95.1% | 99.1% | 94.8% | 108% | 130% | 111% | 105% | 96.4% | 103% | 106% | 0 | 0 | drug sensitivity score [20]: 0; drug sensitivity score [23]: 0; drug sensitivity score [24]: 0 |
